Reference: patent publication US10856562B2, “Flavor composition and edible compositions containing same” (MARS, INCORPORATED, priority 2013, dated 2020)
Square brackets hold non-standard residues; d marks the D form. Ends that are not written are not given here. pGlu = O=C1CC[C@@H](C(=O)O)N1

Tested on: panelists
Assay: Attribute perception scores of flavor enhancers in solution (Example 6)
Assay type: in vivo, human
Parameters: key to Metallic / Numbing / Atringent / Salt / Sweet / Sour / Bitter / Umami / Sour, mean evaluation score in solution / Numbing, mean evaluation score in solution / Astringent / Umami FF: 15-point intensity scale, 0 = none, 15 = very strong
Settings: for Astringent, mean evaluation score in solution / Bitter, mean evaluation score in solution / Flinty/Mineral, mean evaluation score in solution / Metallic, mean evaluation score in solution / Numbing, mean evaluation score in solution / Salt, mean evaluation score in solution / Sour, mean evaluation score in solution / Sweet, mean evaluation score in solution / Umami FF, mean evaluation score in solution / Umami, mean evaluation score in solution / Atringent / Bitter / Metallic / Mineral/Flinty / Numbing / Salt / Sour / Sweet / Umami / Umami/brothy: 15-point scale; for Atringent / Bitter / Metallic / Mineral/Flinty / Numbing / Salt / Sour / Sweet / Umami / Umami/brothy: solution
[1] = 1.0 ppb in solution (NaCl, water)
[2] = 1.0 to 100 ppb, listed as UE 30
[3] = 10.0 ppb in solution (NaCl, water)
[4] = 100.0 ppb in solution (NaCl, water)

[pGlu]-Val-Cys [UE-30] was tested, and the “Astringent, mean evaluation score in solution” value (“Astringent … in solution” for short) [1] was 0.0, the “Bitter, mean evaluation score in solution” value (shortened to “Bitter … in solution”) [1] was 0.0 and the “Flinty/Mineral, mean evaluation score in solution” value (“Flinty/Mineral … in solution” below) [1] was 0.4. For the same substance, the “Metallic, mean evaluation score in solution” value (from here on “Metallic … in solution”) [1] was 0.0, the “Numbing, mean evaluation score in solution” value (“Numbing … in solution” for short) [1] was 0.0 and the “Salt, mean evaluation score in solution” value [1] was 1.2. For the same substance, the “Sour, mean evaluation score in solution” value [1] was 0.0, the “Sweet, mean evaluation score in solution” value [1] was 0.0 and the “Umami FF, mean evaluation score in solution” value (“Umami FF” below) [1] was 0.1. The “Umami, mean evaluation score in solution” value [1] was 0.0, the “Mineral/Flinty aromatic in solution as the concentration increases” value (1.0 to 100 ppb) was “increases” and the “Salt perception level in solution as the concentration increases” value (1.0 to 100 ppb) was “increases slightly”. For the same substance, the “Umami aromatic in solution as the concentration increases” value (1.0 to 100 ppb) was “shows no distinct pattern”, the “Umami feeling factor in solution as the concentration increases” value (1.0 to 100 ppb) was “increases” and the “Mineral/Flinty aromatic in solution as the concentration increases” value [2] was “increase slightly”. The “Salt perception level in solution as the concentration increases” value [2] was “increase slightly”, the “Astringent … in solution” value [3] was 0.0 and the “Bitter … in solution” value [3] was 0.0. The “Flinty/Mineral … in solution” value [3] was 0.8, the “Metallic … in solution” value [3] was 0.0 and the “Numbing … in solution” value [3] was 0.0. For the same substance, the “Salt, mean evaluation score in solution” value [3] was 1.5, the “Sour, mean evaluation score in solution” value [3] was 0.0 and the “Sweet, mean evaluation score in solution” value [3] was 0.0. For the same substance, the “Umami FF” value [3] was 0.6, the “Umami, mean evaluation score in solution” value [3] was 0.4 and the “Astringent … in solution” value [4] was 0.0. The “Bitter … in solution” value [4] was 0.7, the “Flinty/Mineral … in solution” value [4] was 1.1 and the “Metallic … in solution” value [4] was 0.0. For the same substance, the “Numbing … in solution” value [4] was 0.0, the “Salt, mean evaluation score in solution” value [4] was 1.8 and the “Sour, mean evaluation score in solution” value [4] was 0.0. For the same substance, the “Sweet, mean evaluation score in solution” value [4] was 0.0, the “Umami FF” value [4] was 2.1 and the “Umami, mean evaluation score in solution” value [4] was 0.1. For the same substance, the Atringent (Concentration 1, MAX) was 0.0, the Bitter (Concentration 1, MAX) was 0.0 and the Metallic (Concentration 1, MAX) was 0.0. The Mineral/Flinty (Concentration 1, MAX) was 0.5, the Numbing (Concentration 1, MAX) was 0.0 and the Salt (Concentration 1, MAX) was 1.5. For the same substance, the Sour (Concentration 1, MAX) was 0.0, the Sweet (Concentration 1, MAX) was 0.0 and the Umami (Concentration 1, MAX) was 0.5. It also gave a Umami/brothy (Concentration 1, MAX) of 0.0, an Atringent (Concentration 1, MEAN) of 0.0 and a Bitter (Concentration 1, MEAN) of 0.0. The Metallic (Concentration 1, MEAN) was 0.0, the Mineral/Flinty (Concentration 1, MEAN) was 0.4 and the Numbing (Concentration 1, MEAN) was 0.0. The Salt (Concentration 1, MEAN) was 1.2, the Sour (Concentration 1, MEAN) was 0.0 and the Sweet (Concentration 1, MEAN) was 0.0. It also gave a Umami (Concentration 1, MEAN) of 0.1, a Umami/brothy (Concentration 1, MEAN) of 0.0 and an Atringent (Concentration 1, MIN) of 0.0. For the same substance, the Bitter (Concentration 1, MIN) was 0.0, the Metallic (Concentration 1, MIN) was 0.0 and the Mineral/Flinty (Concentration 1, MIN) was 0.0. The Numbing (Concentration 1, MIN) was 0.0, the Salt (Concentration 1, MIN) was 1.0 and the Sour (Concentration 1, MIN) was 0.0. The Sweet (Concentration 1, MIN) was 0.0, the Umami (Concentration 1, MIN) was 0.0 and the Umami/brothy (Concentration 1, MIN) was 0.0. For the same substance, the Atringent (Concentration 10, MAX) was 0.0, the Bitter (Concentration 10, MAX) was 0.0 and the Metallic (Concentration 10, MAX) was 0.0. For the same substance, the Mineral/Flinty (Concentration 10, MAX) was 1.0, the Numbing (Concentration 10, MAX) was 0.0 and the Salt (Concentration 10, MAX) was 2.0. It also gave a Sour (Concentration 10, MAX) of 0.0, a Sweet (Concentration 10, MAX) of 0.0 and a Umami (Concentration 10, MAX) of 1.0. For the same substance, the Umami/brothy (Concentration 10, MAX) was 0.8, the Atringent (Concentration 10, MEAN) was 0.0 and the Bitter (Concentration 10, MEAN) was 0.0. The Metallic (Concentration 10, MEAN) was 0.0, the Mineral/Flinty (Concentration 10, MEAN) was 0.8 and the Numbing (Concentration 10, MEAN) was 0.0. It also gave a Salt (Concentration 10, MEAN) of 1.5, a Sour (Concentration 10, MEAN) of 0.0 and a Sweet (Concentration 10, MEAN) of 0.0. For the same substance, the Umami (Concentration 10, MEAN) was 0.6, the Umami/brothy (Concentration 10, MEAN) was 0.4 and the Atringent (Concentration 10, MIN) was 0.0. For the same substance, the Bitter (Concentration 10, MIN) was 0.0, the Metallic (Concentration 10, MIN) was 0.0 and the Mineral/Flinty (Concentration 10, MIN) was 0.0. It also gave a Numbing (Concentration 10, MIN) of 0.0, a Salt (Concentration 10, MIN) of 1.0 and a Sour (Concentration 10, MIN) of 0.0. The Sweet (Concentration 10, MIN) was 0.0, the Umami (Concentration 10, MIN) was 0.0 and the Umami/brothy (Concentration 10, MIN) was 0.0. For the same substance, the Atringent (Concentration 100, MAX) was 0.0, the Bitter (Concentration 100, MAX) was 1.5 and the Metallic (Concentration 100, MAX) was 0.0. For the same substance, the Mineral/Flinty (Concentration 100, MAX) was 1.5, the Numbing (Concentration 100, MAX) was 0.0 and the Salt (Concentration 100, MAX) was 2.0. It also gave a Sour (Concentration 100, MAX) of 0.0, a Sweet (Concentration 100, MAX) of 0.0 and a Umami (Concentration 100, MAX) of 3.0. For the same substance, the Umami/brothy (Concentration 100, MAX) was 0.5, the Atringent (Concentration 100, MEAN) was 0.0 and the Bitter (Concentration 100, MEAN) was 0.7. It also gave a Metallic (Concentration 100, MEAN) of 0.0, a Mineral/Flinty (Concentration 100, MEAN) of 1.1 and a Numbing (Concentration 100, MEAN) of 0.0. The Salt (Concentration 100, MEAN) was 1.8, the Sour (Concentration 100, MEAN) was 0.0 and the Sweet (Concentration 100, MEAN) was 0.0. It also gave a Umami (Concentration 100, MEAN) of 2.1, a Umami/brothy (Concentration 100, MEAN) of 0.1 and an Atringent (Concentration 100, MIN) of 0.0. For the same substance, the Bitter (Concentration 100, MIN) was 0.0, the Metallic (Concentration 100, MIN) was 0.0 and the Mineral/Flinty (Concentration 100, MIN) was 0.8. It also gave a Numbing (Concentration 100, MIN) of 0.0, a Salt (Concentration 100, MIN) of 1.0 and a Sour (Concentration 100, MIN) of 0.0. For the same substance, the Sweet (Concentration 100, MIN) was 0.0, the Umami (Concentration 100, MIN) was 1.5 and the Umami/brothy (Concentration 100, MIN) was 0.0.
